Measurements published in publication PMC5412445, “ZeGlobalTox: An Innovative Approach to Address Organ Drug Toxicity Using Zebrafish” (International Journal of Molecular Sciences, 2017).
Read-outs that look alike come from different tables or passages of the source.

What was measured:
in vivo = type: in vivo; conditions: zebrafish, in vivo; mortality; embryos incubated 3 to 96 hpf; 5 logarithmic concentrations 0.1 µM to 1 mM; 1% DMSO
Description: (§1) Several issues were considered when planning the experimental protocol. The main concern was that drug-induced mortality and/or developmental toxicity (teratogenicity) could mask possible organ-toxicities appearing later in development. […] This preliminary assay allowed for the identification of non-mortal/non-teratogenic concentrations—no observed effect concentration (NOEC)—to use in the following assays. The hypothesis is that NOEC could affect organ physiology (organ toxicity), while uncoupled from putative developmental toxicity side-effects affecting organ development or function. Another consideration was to start drug incubations at 96 hours post fertilization (hpf), when the analysed organs are close to or already developed (Figure 1B). The overall aim is to understand the drug impact on organ physiology and function rather than early embryogenesis. The third consideration was to organize the sequential organ evaluation during the experimental and drug incubation time.
(§2) 1% DMSO, which is the constant solvent concentration in all conditions, was used as the negative control.
(§3) Thus, 20 wild type (wt) zebrafish embryos per condition were incubated with tested compounds from 3 to 96 hpf. The test was performed in 5 logarithmic concentrations per drug (from 0.1 µM to 1 mM). Each larva was analysed for mortality, body deformity, edema, tail detachment, pigmentation, heart activity, heart edema, and motor activity. […] DMSO 1% was used as the negative control in all experiments.

[1] = system: wild type zebrafish embryos; test: in vivo; type: in vivo; conditions: embryos incubated 3 to 96 hpf; 5 logarithmic concentrations 0.1 µM to 1 mM; 1% DMSO
Description: as §1, §2, §3

humans = conditions: cited from earlier work
zebrafish larvae liver = test: ZeGlobalTox hepatotoxicity: Oil Red O staining (steatosis and yolk lipid accumulation); conditions: 132 hpf; for Percentage of larvae presenting steatosis: 36 h drug incubation at NOEC (EtOH 2%, MPTP 100 µM), DMSO 24.44%
Protocol: In order to assess drugs producing steatosis and yolk lipid accumulation, and subsequent to the RFP filtered images being acquired, zebrafish larvae were stained with Oil Red O. Larvae and were sorted into steatosis positive or negative, yolk lipid accumulation, or both (see materials and methods).
For the ZeGlobalTox assay, fertilized Tg(cmlc2:GFP; fabp10:RFP; ela31:EGFP) zebrafish embryos were collected in E3 medium (5 mM NaCl, 0.17 mM KCl, 0.33 mM CaCl2, 0.33 mM, MgSO4) in Petri dishes. At 3, 24, and 48 hpf, dishes were observed and all not fertilized, abnormal, or coagulated eggs were discarded. At 96 hpf, 20 larvae per condition were incubated with the NOECs from the different drugs and allowed to develop until 132 hpf at 28.5 °C.
After 36 h of drug incubation (132 hpf), embryos are fixed in 4% paraformaldehyde (158127-500G, Sigma-Aldrich, Saint Louis, MO, USA) for 2–4 h at room temperature (RT) and then are 3× washed with PBS.
In order to detect the presence of steatosis and yolk lipid retention, zebrafish larvae were stained with Oil Red O (O0625-25G, Sigma-Aldrich, Saint Louis, MO, USA) as described in [77]. Briefly, the skin pigment from fixed larvae is removed by incubating with bleaching solution (for 10 mL: 6 mL H2O, 0.25 mL 20× SSC, 0.5 mL formamide, 3.3 mL H2O2) during 20 min at RT. Then, the larvae are 5× washed with PBS. Bleached embryos are first submerged in 85% Propylene glycol (PG) (134368-1L, Sigma-Aldrich, Saint Louis, MO, USA) for 10 min and then in 100% PG for another 10 min before staining them with Oil Red O 0.5% in 100% PG (overnight, at RT and with gentle rocking). Oil Red O stained embryos are washed in 100% PG for 30 min, 50 min in 85% PG, and 40 min in 85% PG with an equal volume of PBS. Finally, embryos are washed 1× with PBS before adding 80% glycerol (G7757-500ML, Sigma-Aldrich, Saint Louis, MO, USA). Bright field images are taken to detect both steatosis and yolk lipid accumulation. […] Yolk lipid retention is considered positive when a red strong signal is observed in the yolk area (Figure 5F).
DMSO 1% treated larvae were used as the negative control group.

zebrafish larvae heart = test: ZeGlobalTox cardiotoxicity evaluation (heart video, ZeCardio software); type: in vivo, zebrafish (Danio rerio); conditions: 100 hpf, 4 h after drug incubation at NOEC (haloperidol 10 µM)
Protocol: Four cardiac parameters were evaluated to assess whether a compound was cardiotoxic: heart rate (beats per minute, BPM), QTc prolongation, ejection fraction (EJF), and cardiac arrest. […] 1% DMSO was used as the negative control.
Cardiotoxicity evaluation was performed from 96 hpf, when the zebrafish heartbeat is already stabilised, so the analysis might not be altered by unstable beating. Zebrafish hearts were video-recorded at 4 h after drug incubation (100 hpf) and analysed using the ZeCardio® β software (Figure 3A).
After 4 h of drug incubation (100 hpf), zebrafish larvae were anesthetized by immersion in […] tricaine methanesulfonate (A4050, Sigma-Aldrich, Saint Louis, MO, USA)/E3 solution. […] The 1% DMSO treated embryos were used as negative cardiotoxic controls. Embryos were positioned in an agarose based mold to allow their appropriate orientation under the fluorescence stereo microscope (Olympus MVX10). Individual fluorescent hearts were recorded during 60 s each (Figure 6A). Videos were acquired with a high-speed recording camera (Hamamatsu C11440 ORCA-flash 2.8) and analysed with the ZeCardio® β software to extract different cardiac parameters—heart rate, cardiac arrest, QTc prolongation, and Ejection Fraction (EJF) (Figure 6B).
ZeCardio® β software, developed by ZeClinics and currently in β status, provides a graphical user interface (GUI) that facilitates the semi-automatic analysis of living heart videos. Interactive analysis of the different parameters functions as follows: The user draws a line along the heart axis, from ventricle to atrium, to initiate the calculation. […] All lines can be subjected to modification of their angles and lengths.
Heart beat frequency for each chamber is detected and frequencies are presented in the GUI as a mean. A plot distribution is used for assessing beat stability over time (Figure 6F). In the same fashion, chamber specific cardiac arrest is measured as the longest beating pause (Figure 6H). No beating chambers and/or incorrect bpm can be manually flagged when detected.
For calculation of the QTc interval (linearly corrected QT interval), the Framingham formula (QTc = QT + 0.154 (1 − RR)) was adjusted for zebrafish as QTc = QT + 0.154 (2.66 − RR). RR = 6.6 ms/measured bpm is applied (Figure 6G). Finally, the Ejection Fraction, calculated as the maximal dilatation (the diastolic diameter, DD) versus the maximal contraction (systolic diameter, SD) is measured in % as EF% = (DD − SD)/DD*100 (Figure 6G). Computed values for the described parameters were exported in .csv format (Figure 6H).

zebrafish larvae = test: ZeGlobalTox neurotoxicity evaluation (locomotion, light/dark trial); type: in vivo, zebrafish (Danio rerio); conditions: 120 hpf, drug from 96 hpf at NOEC (MPTP 100 µM, paracetamol 2600 µM)
Protocol: By 5 dpf, zebrafish larvae perform spontaneous swimming and their visual system is fully developed. Therefore, behavioural experiments were performed from this time point (Figure 4A). Deviations in total distance moved, in response to photo-visual stimulation, were analysed as a direct measurement of neurotoxicity. Thus, drugs increasing or decreasing total distance moved when compared to the DMSO-only group were considered neurotoxic. As the positive neurotoxic control we used MPTP, which has been identified as a neurotoxic drug in humans and zebrafish.
Immediately after heart video acquisition, larvae are washed with E3 medium to remove tricaine methanesulfonate from the solution. Fresh drug solution is added and the larvae are transferred individually in a volume of 150 µL to 96 well plates.
Neurotoxicity is analysed at 120 hpf by locomotion assessment using the EthoVision XT 11.5 software and the DanioVision device from Noldus Information Technologies, Wageningen, The Netherlands. This closed system consists of a camera placed above a chamber with circulating water and a temperature sensor set at 28 °C. The 96-well plates are placed in the chamber, which can then be illuminated with white light using the software. Larvae are then left for 20 min under these conditions and with the lights on to help their acclimation. Finally, larvae locomotion is measured during 50′ under the following light/dark conditions: 10′ darkness-10′ Light-10′ darkness-10′ Light-10′ darkness. Total distance moved (in mm) is acquired under this light/dark trial. Due to circadian rhythms, all locomotion assays were performed from 13:00 pm onwards to ensure steady activity of the zebrafish.
Neurotoxicity is assessed by comparing locomotion differences among the tested compounds (solved in DMSO) and the negative control group (DMSO 1%-only).

[2] = known toxicity in humans, ref TOXNET (HSDB), Side effects (EMBL), drugs.com, [22],[30],[31],[34],[35]
[3] = known toxicity in humans, ref TOXNET (HSDB), Side effects (EMBL), drugs.com, ema.europa, [19],[20],[21]
[4] = known toxicity in humans, ref TOXNET (HSDB), Side effects (EMBL), drugs.com, ema.europa, [24],[26],[27],[32],[33]

Structure (SMILES) | LC50 (in vivo) [µM] | 96 hpf LOEC [1] [µM] | Neurotoxicity (toxicity in humans) (humans; [2]) | Cardiotoxicity (toxicity in humans) (humans; [3]) | Hepatotoxicity (toxicity in humans) (humans; [4]) | 96 hpf NOEC [1] [µM] | also measured
CC(=O)O[C@H]1C[C@@]2(C)[C@@H](C[C@@H](O)[C@H]3[C@@]4(C)CC[C@@H](O)[C@@H](C)[C@@H]4CC[C@@]32C)/C1=C(\CCC=C(C)C)C(=O)O [Fusidic Acid, fusidic acid] | 124 | 100.00 | Safe | Safe | Toxic [32, 33] | – | –
NNC(=O)c1ccncc1 [Isoniazid, isoniazid] | – | – | Toxic ^1,2,3 | Safe | Toxic ^1,2,3 | 1000.00 | Percentage of larvae presenting steatosis (zebrafish larvae liver): 60%
CCOC(=O)Nc1ccc(NCc2ccc(F)cc2)nc1N [Flupirtine, flupirtine] | 136 | 100.00 | Safe | Safe | Toxic ^4 | 10.00 | –
COc1cc(N)c(Cl)cc1C(=O)NC1CCN(CCCOc2ccc(F)cc2)CC1OC (centres unmarked) [Cisapride, cisapride] | > 1000 | – | Safe | Toxic ^1,3 | Safe | – | Heart rate (beats per minute) compared to DMSO-only (zebrafish larvae heart): decreased the heart rate; Longest cardiac arrest compared to DMSO-only (zebrafish larvae heart): Longer cardiac arrest
CCO [Ethanol] | – | – | Toxic ^1 | Toxic ^1 | Toxic [26, 27] | – | –
CN(CCOc1ccc(NS(C)(=O)=O)cc1)CCc1ccc(NS(C)(=O)=O)cc1 [Dofetilide, dofetilide] | – | 100.00 | Safe | Toxic ^1,2,3 | Safe | – | Heart rate (beats per minute) compared to DMSO-only (zebrafish larvae heart): decreased the heart rate; Longest cardiac arrest compared to DMSO-only (zebrafish larvae heart): Longer cardiac arrest
[Cl-].[Na+] [NaCl, sodium chloride] | – | – | Safe | Safe | Safe | 1000.00 | –
NC(=O)CC[C@H](N)C(=O)O [L-Glutamine, L-glutamine] | – | – | Safe | Safe | Safe | – | –
Cc1ccc(C(=O)Nc2ccc(S(=O)(=O)O)c3cc(S(=O)(=O)O)cc(S(=O)(=O)O)c23)cc1NC(=O)c1cccc(NC(=O)Nc2cccc(C(=O)Nc3cc(C(=O)Nc4ccc(S(=O)(=O)O)c5cc(S(=O)(=O)O)cc(S(=O)(=O)O)c45)ccc3C)c2)c1 [Suramin, suramin] | 197 | 1000 | Toxic [34, 35] | Safe | Safe | – | –
O=C(O)c1cn(C2CC2)c2cc(N3CCNCC3)c(F)cc2c1=O [Ciprofloxacin, ciprofloxacin] | – | – | – | – | – | – | Heart rate (beats per minute) compared to DMSO-only (zebrafish larvae heart): increased heart rates; Longest cardiac arrest compared to DMSO-only (zebrafish larvae heart): no differences
OC[C@H]1OC(O)[C@H](O)[C@@H](O)[C@@H]1O (stereo partly drawn) [D-(+)-glucose] | – | – | – | – | – | 1000.00 | Cardiotoxicity (toxicity in humans) (humans; in vivo): Safe; Hepatotoxicity (toxicity in humans) (humans; in vivo): Safe; Neurotoxicity (toxicity in humans) (humans; in vivo): Safe
CC(=O)O[C@@]12CO[C@@H]1C[C@H](O)[C@@]1(C)C(=O)[C@H](O)C3=C(C)[C@@H](OC(=O)[C@H](O)[C@@H](NC(=O)OC(C)(C)C)c4ccccc4)C[C@@](O)([C@@H](OC(=O)c4ccccc4)[C@H]21)C3(C)C [Docetaxel, docetaxel] | – | 100.00 | Toxic ^1,2,3 | Toxic ^2,3 | Toxic ^1,2,3 | – | Heart rate (beats per minute) compared to DMSO-only (zebrafish larvae heart): decreased the heart rate; Longest cardiac arrest compared to DMSO-only (zebrafish larvae heart): Longer cardiac arrest; Motility (total distance moved) compared to DMSO (zebrafish larvae): increased motility
CC(C)(C)NC(=O)[C@H]1CC[C@H]2[C@@H]3CC[C@H]4NC(=O)C=C[C@]4(C)[C@H]3CC[C@]12C [Finasteride, finasteride] | 31.6 | 100.00 | Safe | Safe | Safe | – | Percentage of larvae presenting steatosis (zebrafish larvae liver): 65%
N[C@@H](CS)C(=O)O [L-Cysteine, L-cysteine] | – | – | – | – | – | 1000.00 | –
CCN(CC)c1ccc(C=O)cc1 [DEAB, 4-diethylaminobenzaldehyde] | 186 | 10.00 | – | – | – | 1.00 | –
C[C@](N)(Cc1ccc(O)c(O)c1)C(=O)O [Methyldopa, methyldopa] | – | – | Toxic ^1,3 | Safe | Toxic ^1,2,3 | 1000.00 | Percentage of larvae presenting yolk lipid retention (zebrafish larvae liver; 36 h drug incubation at NOEC (paracetamol 2600 µM), DMSO 22.22%): 50%
O=C(CCCN1CCC(O)(c2ccc(Cl)cc2)CC1)c1ccc(F)cc1 [Haloperidol] | – | – | Toxic ^1,2,3 | Toxic ^1,2,3 [19, 20, 21] | Safe | – | Heart rate (beats per minute) compared to DMSO-only (zebrafish larvae heart): decreased the heart rate; QTc interval compared to DMSO-only (zebrafish larvae heart): QTc interval prolongation
C[C@]12CC[C@H](O)C[C@H]1CC[C@@H]1[C@@H]2C[C@@H](O)[C@]2(C)[C@@H](C3=CC(=O)OC3)CC[C@]12O [Digoxigenin, digoxigenin] | – | 1000.00 | – | Toxic ^1 | – | 100.00 | Percentage of larvae presenting steatosis (zebrafish larvae liver): 55%
